Key:
AD169 CMV virus = assay: Time-of-addition assay; format: cell-based, Human cytomegalovirus; details: 10 μM added -60 to 90 minutes post-infection, infection quantified at 24 hpi
Experimental: FIG. 5A-C are graphs showing that NAPA compounds target an early, post-attachment step of the CMV virus. (A) MBX-4992 (10 μM) was added along a time course post infection with AD169 (MOI 0.2) from −60 to 90 minutes after virus addition to NHDF fibroblasts. Infection at 24 hours was quantified after an immunostain with an anti-IE1 antibody. Percent infection was normalized to untreated cells where media was added either-60 or 90 minutes after virus addition. A schematic of the experimental design is shown.
NHDF cells (10^4) were plated in a 96-well plate overnight. A working stock of MBX-4992 at 20 μM was used as a 2×to achieve a final concentration of 10 μM. […] At […], the cells were fixed with 4% paraformaldehyde, stained with a rabbit anti-IE1 antibody followed by an anti-rabbit Alexa 647, and analyzed using the Celigo cytometer. Using the −60 DMSO treated cells as 100% infectivity, the percent relative to maximum infection was determined from cells treated with drug at different time points.
To further analyze the step of CMV entry targeted by NAPA compound MBX-4992, a time of addition assay was performed. MBX-4992 (10 μM) was added at various times during […] infection (−60, 0, 15, 30, 60, and 90 minutes post-infection (mpi)) with AD169 CMV virus and viral infection was quantified at 24 hpi. […]

HHV-8 BCBL-1 = assay: Herpes virus panel neutralization, HHV-8; format: cell-based, Human herpes virus 8
Experimental: To determine the specificity of MBX-4992, additional neutralization experiments were conducted using a panel of herpes viruses performed in the presence of MBX-4992. […] Collectively, the antiviral activity of MBX-4992 is equivalent to that of GCV indicating specific inhibition of CMV replication.

AD169^R = assay: Cells pre-incubation / washout study; format: cell-based, Human cytomegalovirus
Experimental: (C) NHDF cells were pre-incubated with DMSO, MBX-4992 or heparin prior to virus addition. After addition of AD169^R (MOI 0.2) for 30 min, media was either unchanged or replaced with media containing DMSO, MBX-4992, or heparin. Virus infection was quantified at 24 hpi by GFP fluorescence. Percent infection was normalized to untreated cells. Statistical tests were performed using ordinary one-way ANOVA with multiple comparisons to DMSO treated cells as a control and a Dunnett's post-test: *, p<0.05; ****, p<0.0001.
NHDF cells (10^4) plated overnight in a 96-well plate were pretreated with MBX-4992 (10 μM), heparin (50 μg/mL) or DMSO for 1 hour at 37° C. The plate was then placed at 4° C. for 5 minutes followed by the addition of AD169^R CMV virus for 30 minutes. 2/3rd of the samples were aspirated post binding. Half of those samples received DMSO media, regardless of the drug the cells were previously exposed to. The remaining wells received either MBX-4992 (10 μM) or Heparin (50 μg/mL) overnight. At 18 hpi, the cells were fixed with 4% paraformaldehyde, stained with a rabbit anti-IE1 antibody followed by an anti-rabbit Alexa 647, and analyzed using the Celigo cytometer. The DMSO condition that was not aspirated post binding was set as 100% infection.
We next examined whether pre-treating cells with MBX-4992 can limit virus infection. Cells were pre-treated with MBX-4992 or heparin for […] followed by the addition of AD169^R for 30 min at 4° C. The cells were either washed out or unchanged as indicated and replaced with media containing DMSO, MBX-4992, or heparin followed by incubation at 37° C. At 18 hpi, virus infection was evaluated using a Celigo cytometer.

CMV AD169^IE2-YFP = assay: Anti-CMV activity (IC50) of NAPA compounds, AD169 IE2-YFP reporter virus high-content assay in fibroblasts; format: cell-based, Human cytomegalovirus
Experimental: To identify CMV inhibitors, a high-content screening (HCS) early-stage-specific reporter assay using a CMV AD169 yellow-fluorescent protein (YFP) expressing virus (AD169^IE2-YFP) (Gardner et al., Antiviral Res., 113:49-61 (2015)) was developed to screen >112,000 compounds to identify potent inhibitors (IC50<10 μM) of cytomegalovirus having a minimal mammalian cytotoxicity (CC50) of preferably ≥100 μM. As a result, we have identified, isolated, and characterized a novel series of N-arylpyrimidinamines (NAPAs) that inhibit CMV infection. […] Further, the NAPA compounds are broadly effective at inhibiting virus infection of diverse strains and cell types.
The CMV IE1 and IE2 gene products are translated within 3-6 hours post infection (hpi) and function to stimulate viral promoters to initiate transcription of early and late viral genes (Cherrington et al., J. Virol., 63:1435-40 (1989); Meier et al., J. Virol., 71:1246-1255 (1997)). The CMV AD169 variant that expresses a viral protein chimera consisting of IE2-YFP (AD1691E2/YFP) was utilized to quantify virus infection in a high-throughput screen by a robust fluorescent signal localized exclusively to the nucleus (8-24 hpi) (Gardner et al., supra (2015); Cohen et al., Viruses, 8 (10): 295 (2016); Cohen et al., J. Virol., 90:10715-10727 (2016)). Using the AD1691E2-YFP reporter virus assay, a collection of the compound libraries (>112,000 compounds) was screened for inhibitors of the early stages of CMV replication using a confocal fluorescence microscopic plate reader (BioTek Cytation3). Infection was calculated as a percentage of nuclei containing YFP and cycloheximide (8 μM) was used as a positive control. The Z′ factor for the optimized assay was >0.5 which was sufficient to initiate screening.
We evaluated 300 primary hits using an assay funnel designed to prioritize compounds based on antiviral activity, specificity, and drug-like properties. This identified two candidates for hit-to-lead optimization that were not Pan Assay Interference compounds (PAINS) (Baell et al., J. Med. Chem., 53:2719-40 (2010); Capuzzi et al., J. Chem. Inf. Model 57:417-427 (2017); Dahlin et al., Assay Drug Dev. Technol., 14:168-174 (2016)). […] The NAPA series was chosen as the primary hit-to-lead series due to its synthetic accessibility and the >2-log range in potency observed in the preliminary SAR that provides a clear pathway to improving antiviral activity and drug-like properties.

CYP3A4 = CYP3A4 (Homo sapiens, UniProt P08684); assay: CYP3A4 inhibition at 10 μM; format: in vitro ADME; details: % inhibition of CYP3A4 at 10 μM
CYP3A4, sequence (P08684 whole entry, species assumed): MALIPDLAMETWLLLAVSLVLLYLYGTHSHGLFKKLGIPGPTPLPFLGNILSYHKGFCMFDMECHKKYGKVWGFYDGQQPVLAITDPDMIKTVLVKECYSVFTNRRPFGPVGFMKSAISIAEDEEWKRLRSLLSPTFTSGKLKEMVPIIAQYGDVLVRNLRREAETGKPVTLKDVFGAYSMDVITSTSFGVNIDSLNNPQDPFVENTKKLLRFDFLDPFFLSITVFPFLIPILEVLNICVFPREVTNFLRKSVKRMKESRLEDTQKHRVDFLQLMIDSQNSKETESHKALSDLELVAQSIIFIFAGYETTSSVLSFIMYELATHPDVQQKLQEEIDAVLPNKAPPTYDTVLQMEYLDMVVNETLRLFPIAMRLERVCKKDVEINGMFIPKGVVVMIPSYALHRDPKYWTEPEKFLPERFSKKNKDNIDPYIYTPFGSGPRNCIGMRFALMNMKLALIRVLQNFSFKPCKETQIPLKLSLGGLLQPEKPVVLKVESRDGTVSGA

Cc1nc(Nc2ccc(NC(=O)c3ccco3)cc2)cc(N2CCCC2)n1 [MBX-4992]
inhibition of infection by time of addition (AD169 CMV virus): most effective at preventing infection when introduced prior to and within 30 mpi | SI (HHV-8 BCBL-1): >10 | IC50 (HHV-8 BCBL-1; Homo sapiens, BCBL1): 10 µM | virus infection, drug removed (AD169^R; cells pre-incubated and compound sequentially removed): do not significantly impact infection | virus infection, drug not removed or added back (AD169^R; cells pre-treated, drugs not removed or added back to washed-out cells): significantly inhibited virus infection | selectivity index (SI) (CMV AD169^IE2-YFP; CC50/IC50): > 50 | IC50 (CMV AD169^IE2-YFP; Human betaherpesvirus 5, AD169, Fibroblast): 1.72 µM | CYP (CYP3A4): <10%

— patent US20250177392A1, “BROAD SPECTRUM INHIBITORS OF CYTOMEGALOVIRUS” (MICROBIOTIX, INC., priority 2022, published 2025)
